Data taken from ChEMBL document CHEMBL5584238, “Psammaplin A analogues with modified disulfide bond targeting histone deacetylases: Synthesis and biological evaluation” (Eur J Med Chem, 2024).
pIC50: −log10 of the molar value. Calls of active or inactive are those of the source. No cut-off for these calls is given here.

Experiments:
HCT-116 [1] = test: Induction of cell cycle arrest in human HCT-116 cells assessed as accumulation of cells at G1 phase at 0.1 uM after 24 hrs by PI staining based flow cytometry analysis (reference value: 37.9%); type: functional
[2] = biological target: T1, Protein deacetylase HDAC6 (Homo sapiens) (UniProt Q9UBN7); test: Inhibition of HDAC6 in human HCT-116 cells assessed as upregulation of acetylated alpha-tubulin level incubated for 24 hrs by Western blotting analysis; type: cell-based; conditions: dose 0.5-4 µM
T1 sequence (whole entry): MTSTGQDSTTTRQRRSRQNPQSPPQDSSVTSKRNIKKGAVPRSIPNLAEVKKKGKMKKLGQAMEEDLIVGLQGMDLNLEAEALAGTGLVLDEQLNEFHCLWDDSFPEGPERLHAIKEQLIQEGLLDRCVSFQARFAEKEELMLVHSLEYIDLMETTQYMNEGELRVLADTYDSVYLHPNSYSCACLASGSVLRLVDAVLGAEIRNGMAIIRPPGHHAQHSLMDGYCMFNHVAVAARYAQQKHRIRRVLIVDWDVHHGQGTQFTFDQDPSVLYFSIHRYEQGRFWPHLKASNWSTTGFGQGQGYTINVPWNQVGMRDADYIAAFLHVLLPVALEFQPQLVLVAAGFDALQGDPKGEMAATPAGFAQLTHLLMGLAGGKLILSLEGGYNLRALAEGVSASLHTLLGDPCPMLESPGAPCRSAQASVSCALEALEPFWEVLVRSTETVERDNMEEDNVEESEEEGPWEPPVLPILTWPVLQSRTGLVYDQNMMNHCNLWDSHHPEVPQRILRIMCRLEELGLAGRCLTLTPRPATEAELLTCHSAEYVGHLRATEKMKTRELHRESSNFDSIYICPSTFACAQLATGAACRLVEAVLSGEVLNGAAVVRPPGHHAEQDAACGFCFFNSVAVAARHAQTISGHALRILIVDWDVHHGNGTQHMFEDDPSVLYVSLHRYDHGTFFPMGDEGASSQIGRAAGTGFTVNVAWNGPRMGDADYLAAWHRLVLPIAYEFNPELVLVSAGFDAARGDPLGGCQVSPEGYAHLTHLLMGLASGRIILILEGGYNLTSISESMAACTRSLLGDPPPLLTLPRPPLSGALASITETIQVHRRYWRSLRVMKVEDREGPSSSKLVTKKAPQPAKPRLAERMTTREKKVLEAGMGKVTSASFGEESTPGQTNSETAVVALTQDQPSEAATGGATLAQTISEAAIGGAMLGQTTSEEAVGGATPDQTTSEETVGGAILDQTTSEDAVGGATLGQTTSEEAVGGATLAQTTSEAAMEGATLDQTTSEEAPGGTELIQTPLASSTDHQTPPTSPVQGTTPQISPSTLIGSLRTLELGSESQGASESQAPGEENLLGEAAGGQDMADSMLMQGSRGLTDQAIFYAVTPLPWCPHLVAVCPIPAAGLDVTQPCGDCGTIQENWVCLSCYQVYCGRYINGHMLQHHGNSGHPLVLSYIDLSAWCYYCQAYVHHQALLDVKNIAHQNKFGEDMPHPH

HCT-116 [3] = test: Induction of cell cycle arrest in human HCT-116 cells assessed as accumulation of cells at S phase at 0.2 uM after 24 hrs by PI staining based flow cytometry analysis (reference value: 52.8%); type: functional
[4] = biological target: T2, Protein deacetylase HDAC6 (Mus musculus) (UniProt Q9Z2V5); test: In vivo inhibition of HDAC6 in BALB/c nude mouse assessed as upregulation of tumor acetylated alpha-tubulin level at 5 mg/kg, ip administered every 2 days for 26 days by Western blotting analysis; type: functional, organism-based; conditions: time 26.0 day
T2 sequence (whole entry): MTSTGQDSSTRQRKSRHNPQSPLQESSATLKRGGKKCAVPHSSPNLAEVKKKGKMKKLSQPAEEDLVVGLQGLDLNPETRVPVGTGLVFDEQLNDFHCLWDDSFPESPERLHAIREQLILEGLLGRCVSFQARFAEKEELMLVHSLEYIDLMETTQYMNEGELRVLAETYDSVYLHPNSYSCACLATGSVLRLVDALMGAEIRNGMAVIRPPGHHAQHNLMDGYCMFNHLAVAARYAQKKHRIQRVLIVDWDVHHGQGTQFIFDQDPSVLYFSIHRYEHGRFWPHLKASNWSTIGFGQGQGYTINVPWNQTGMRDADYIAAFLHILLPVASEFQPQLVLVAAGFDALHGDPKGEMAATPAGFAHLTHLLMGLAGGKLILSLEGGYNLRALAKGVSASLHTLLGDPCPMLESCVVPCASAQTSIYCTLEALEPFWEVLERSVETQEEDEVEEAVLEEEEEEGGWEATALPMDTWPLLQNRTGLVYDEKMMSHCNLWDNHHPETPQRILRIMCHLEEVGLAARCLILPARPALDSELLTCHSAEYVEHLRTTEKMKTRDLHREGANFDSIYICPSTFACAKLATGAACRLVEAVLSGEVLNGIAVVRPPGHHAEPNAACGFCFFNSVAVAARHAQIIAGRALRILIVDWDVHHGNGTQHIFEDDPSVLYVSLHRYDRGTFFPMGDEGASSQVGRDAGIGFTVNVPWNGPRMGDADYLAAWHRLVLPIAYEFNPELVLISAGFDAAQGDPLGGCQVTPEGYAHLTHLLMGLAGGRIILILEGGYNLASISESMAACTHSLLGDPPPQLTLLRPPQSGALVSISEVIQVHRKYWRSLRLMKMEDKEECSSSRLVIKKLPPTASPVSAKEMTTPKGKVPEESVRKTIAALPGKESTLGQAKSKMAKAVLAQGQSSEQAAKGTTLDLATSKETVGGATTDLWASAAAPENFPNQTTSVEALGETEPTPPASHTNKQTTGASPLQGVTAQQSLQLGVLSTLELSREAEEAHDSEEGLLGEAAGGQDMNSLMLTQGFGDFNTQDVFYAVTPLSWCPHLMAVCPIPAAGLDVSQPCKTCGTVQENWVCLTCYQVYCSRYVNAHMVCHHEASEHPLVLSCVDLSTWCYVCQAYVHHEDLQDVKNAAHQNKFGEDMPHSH

Histone deacetylase 1 = Histone deacetylase 1 (Homo sapiens, UniProt Q13547); test: Inhibition of recombinant human HDAC1 using Boc-Lys(Ac)-AMC as substrate preincubated for 1 hr followed by substrate addition and measured after 2 hrs by microplate reader assay
HCT-116 [5] = test: Induction of apoptosis in human HCT-116 cells assessed as late apoptotic cells at 0.2 uM incubated for 24 hrs by Annexin V-FITC/PI staining based flow cytometry analysis ( Rvb = 5.32%); type: functional
HCT-116 [6] = test: Induction of apoptosis in human HCT-116 cells assessed as viable cells at 0.2 uM incubated for 24 hrs by Annexin V-FITC/PI staining based flow cytometry analysis ( Rvb = 92.2%); type: functional; conditions: read-out: Activity
HCT-116 [7] = test: Induction of cell cycle arrest in human HCT-116 cells assessed as accumulation of cells at G2/M phase at 0.2 uM after 24 hrs by PI staining based flow cytometry analysis (reference value: 9.3%); type: functional

Histone deacetylase 1, sequence (Q13547 whole entry): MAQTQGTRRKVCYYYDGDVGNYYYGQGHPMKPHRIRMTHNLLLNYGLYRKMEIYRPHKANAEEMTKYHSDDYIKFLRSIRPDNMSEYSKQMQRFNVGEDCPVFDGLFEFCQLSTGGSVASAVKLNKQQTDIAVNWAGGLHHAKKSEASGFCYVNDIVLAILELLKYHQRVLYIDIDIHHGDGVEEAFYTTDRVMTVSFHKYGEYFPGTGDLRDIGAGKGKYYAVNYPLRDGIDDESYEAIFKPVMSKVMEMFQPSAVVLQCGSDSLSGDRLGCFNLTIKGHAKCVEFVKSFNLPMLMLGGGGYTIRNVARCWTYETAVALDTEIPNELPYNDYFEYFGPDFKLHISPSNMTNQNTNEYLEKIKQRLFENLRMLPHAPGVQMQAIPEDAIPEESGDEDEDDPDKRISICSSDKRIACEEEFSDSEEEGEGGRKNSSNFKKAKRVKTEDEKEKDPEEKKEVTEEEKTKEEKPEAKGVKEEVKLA

Row | SMILES | Activity (HCT-116 [1]) [%] | inhibition [2] | Activity (HCT-116 [3]) [%] | inhibition [4] | pIC50 (Histone deacetylase 1) | Activity (HCT-116 [5]) [%] | viability at 0.2 µM (HCT-116 [6]) [%] | Activity (HCT-116 [7]) [%]
1 | O=C(NCC[Se][Se]CCNC(=O)/C(Cc1ccc(O)c(Br)c1)=N/O)/C(Cc1ccc(O)c(Br)c1)=N/O | 32.08 | Dose-Dependent Effect | 10.45 | Active | 6.77 | 12.9 | 40.7 | 74.56
2 | O=C(NCC[Se][Se]CCNC(=O)/C(Cc1ccsc1)=N/O)/C(Cc1ccsc1)=N/O | 50.11 | Dose-Dependent Effect | 36.99 | Active | 6.11 | 7.96 | 34.5 | 51.82
